The record followed here is publication PMC9837035 (Nature Communications, 2023).

Values joined by “and” are separate entries in the source; they are usually repeats but may differ in a detail not shown here. Equal entries are not always repeated.

Data set [1] has as its system β- and γ-globin genes in HUDEP-2 cells. The data set is described as follows: RT-qPCR of β- and γ-globin in HUDEP-2 cells. Particulars: for β-globin expression in HUDEP-2 cells / γ-globin expression in HUDEP-2 cells: relative to DMSO = 1, replicate values. Type of data set: cell-based, human. Here is the method: (§1) Total cellular RNA was prepared using the Tissue Total RNA Mini Kit (FAVORGEN), and cDNA was synthesized using ReverTra Ace Master Mix (TOYOBO). Expression of target genes was analyzed using THUNDERBIRD SYBR qPCR Mix (TOYOBO) on a CFX Connect Real Time System (Bio-Rad). The qPCR data were acquired on CFX Maestro (Bio-Rad). Primers are listed in Supplementary Table 10. GAPDH was used as a reference. Primers were purchased from INTEGRATED DNA TECHNOLOGIES or FASMAC.
For orientation: In qPCR the cycle at which signal appears reflects the starting amount.

Data set [2] relates to H3K9me2 in HUDEP-2 cells. Put plainly: Western blotting of H3K9me2 in HUDEP-2 cells. The data set is classed as cell-based, human. The conditions noted are these: HUDEP-2, 4 days. Here is the method: Preparation of cell lysates and western blotting were performed as described previously. Protein from cells lysates in lysis buffer (50 mM Tris-HCl (pH 7.5), 150 mM NaCl, 5 mM EDTA, 0.1% NP-40, 1 mM dithiothreitol) were separated by sodium dodecyl sulfate–polyacrylamide gel electrophoresis (SDS-PAGE) and transferred to a polyvinylidene difluoride (PVDF) membrane (Millipore) by electroblotting. The membranes incubated with primary antibodies overnight at 4 °C and secondary antibodies for 1 h at room temperature. The immune complexes were detected with the Immobilon Western Chemiluminescent HRP Substrate (Millipore). Luminescence was analyzed on a FUSION SOLO S (Vilber). Western blot bands were visualized using Evolution Capt software (M&S Instruments Inc.). Primary antibodies used were anti-G9a (1:1000, CST, #3306), anti–α-tubulin (1:5000, Abcam, ab18251), anti-H3K9me2 (1:3000, Abcam, ab1220), anti-H3 (1:5000, Abcam, ab1791), anti-H3K27me3 (1:3000, Sigma, 07-449), anti-GLP (1:1000, CST, #35005), anti-FLAG (100 ng/ml, Fujifilm, 01422383), anti-His (1:5000, MBL, PM032), anti-BCL11A (1:1000, abcam, ab19487), anti-ZBTB7A (1:1000, CST, #50565), anti-CHD3 (1:1000, Novus Biologicals, NB100-60412), and anti-CHD4 (1:1000, abcam, ab240640). Uncropped scans of all of the blots are available in Source Data file.

In data set [3] the test system is BGLT3 RNA in HUDEP-2 cells. Put plainly: RT-qPCR of BGLT3 in HUDEP-2 cells. Type of data set: cell-based, human. The conditions noted are these: for BGLT3 expression in HUDEP-2 cells: relative to DMSO = 1, replicate values. Here is the method:
as §1

The subject of data set [4] is HUDEP-2 cells. The data set is described as follows: Cell viability assay (WST-8), HUDEP-2. Type of data set: cell-based, human. The method, then: A WST-8 (2-(2-methoxy-4-nitrophenyl)-3-(4-nitrophenyl)-5-(2,4-disulfophenyl)-2H-tetrazolium) assay using a Cell Counting Kit-8 (DOJINDO) was performed to measure cell viability using an EnSpire microplate reader (PerkinElmer).
Background: Formazan colour is commonly taken as a measure of viable cells.

Data set [5] has as its target T1, NSD3 (Homo sapiens, UniProt Q9BZ95).
T1 construct: purchased Reaction Biology
T1 sequence (Q9BZ95 1-1437): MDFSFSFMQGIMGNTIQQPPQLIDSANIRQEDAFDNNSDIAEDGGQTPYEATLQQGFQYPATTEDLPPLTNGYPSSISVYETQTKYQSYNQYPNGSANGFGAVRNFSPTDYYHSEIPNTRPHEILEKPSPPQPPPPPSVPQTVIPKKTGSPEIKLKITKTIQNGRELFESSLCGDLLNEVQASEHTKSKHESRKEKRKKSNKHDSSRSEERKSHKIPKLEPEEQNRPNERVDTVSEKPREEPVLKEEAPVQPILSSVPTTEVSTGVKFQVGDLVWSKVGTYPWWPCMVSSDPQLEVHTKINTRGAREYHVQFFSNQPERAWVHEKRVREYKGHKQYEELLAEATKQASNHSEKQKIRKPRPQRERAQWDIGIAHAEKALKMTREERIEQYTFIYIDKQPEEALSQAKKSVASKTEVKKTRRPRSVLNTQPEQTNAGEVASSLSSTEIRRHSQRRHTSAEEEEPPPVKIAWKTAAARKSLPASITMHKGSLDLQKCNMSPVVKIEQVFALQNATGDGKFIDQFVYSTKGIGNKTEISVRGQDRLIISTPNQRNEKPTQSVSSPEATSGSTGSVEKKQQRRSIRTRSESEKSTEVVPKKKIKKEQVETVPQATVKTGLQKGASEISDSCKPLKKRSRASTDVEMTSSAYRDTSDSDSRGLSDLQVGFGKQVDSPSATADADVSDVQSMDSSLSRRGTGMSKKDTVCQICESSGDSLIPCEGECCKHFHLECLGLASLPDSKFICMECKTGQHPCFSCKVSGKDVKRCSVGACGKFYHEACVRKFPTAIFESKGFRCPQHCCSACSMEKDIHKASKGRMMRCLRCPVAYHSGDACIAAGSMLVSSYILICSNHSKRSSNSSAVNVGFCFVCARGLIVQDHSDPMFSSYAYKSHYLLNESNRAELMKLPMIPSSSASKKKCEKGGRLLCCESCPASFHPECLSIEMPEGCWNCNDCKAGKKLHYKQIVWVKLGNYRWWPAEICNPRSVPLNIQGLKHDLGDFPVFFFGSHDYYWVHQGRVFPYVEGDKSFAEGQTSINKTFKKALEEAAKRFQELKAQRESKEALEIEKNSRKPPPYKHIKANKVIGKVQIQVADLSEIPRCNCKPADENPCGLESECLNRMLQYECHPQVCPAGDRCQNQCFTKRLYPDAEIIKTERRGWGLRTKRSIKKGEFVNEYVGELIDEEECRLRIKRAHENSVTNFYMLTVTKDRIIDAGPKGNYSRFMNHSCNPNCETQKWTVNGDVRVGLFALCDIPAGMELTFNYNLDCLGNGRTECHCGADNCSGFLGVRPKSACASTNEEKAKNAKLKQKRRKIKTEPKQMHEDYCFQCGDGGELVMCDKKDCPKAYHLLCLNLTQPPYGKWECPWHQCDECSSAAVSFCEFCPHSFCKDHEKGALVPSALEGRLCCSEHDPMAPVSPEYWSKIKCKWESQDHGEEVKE
Put plainly: Radioisotope-based methyltransferase assay (selectivity). The data set is classed as biochemical.

Data set [6] addresses T2, ASH1L (Homo sapiens, UniProt Q9NR48).
T2 construct: purchased Reaction Biology
Described as above. Type of data set: biochemical. Particulars: IC50, ASH1L.

Data set [7] deals with T3, PRDM9 (Homo sapiens, UniProt Q9NQV7).
T3 construct: purchased Reaction Biology
The data set is described as above. Type of data set: biochemical.

T3 sequence (Q9NQV7 whole entry): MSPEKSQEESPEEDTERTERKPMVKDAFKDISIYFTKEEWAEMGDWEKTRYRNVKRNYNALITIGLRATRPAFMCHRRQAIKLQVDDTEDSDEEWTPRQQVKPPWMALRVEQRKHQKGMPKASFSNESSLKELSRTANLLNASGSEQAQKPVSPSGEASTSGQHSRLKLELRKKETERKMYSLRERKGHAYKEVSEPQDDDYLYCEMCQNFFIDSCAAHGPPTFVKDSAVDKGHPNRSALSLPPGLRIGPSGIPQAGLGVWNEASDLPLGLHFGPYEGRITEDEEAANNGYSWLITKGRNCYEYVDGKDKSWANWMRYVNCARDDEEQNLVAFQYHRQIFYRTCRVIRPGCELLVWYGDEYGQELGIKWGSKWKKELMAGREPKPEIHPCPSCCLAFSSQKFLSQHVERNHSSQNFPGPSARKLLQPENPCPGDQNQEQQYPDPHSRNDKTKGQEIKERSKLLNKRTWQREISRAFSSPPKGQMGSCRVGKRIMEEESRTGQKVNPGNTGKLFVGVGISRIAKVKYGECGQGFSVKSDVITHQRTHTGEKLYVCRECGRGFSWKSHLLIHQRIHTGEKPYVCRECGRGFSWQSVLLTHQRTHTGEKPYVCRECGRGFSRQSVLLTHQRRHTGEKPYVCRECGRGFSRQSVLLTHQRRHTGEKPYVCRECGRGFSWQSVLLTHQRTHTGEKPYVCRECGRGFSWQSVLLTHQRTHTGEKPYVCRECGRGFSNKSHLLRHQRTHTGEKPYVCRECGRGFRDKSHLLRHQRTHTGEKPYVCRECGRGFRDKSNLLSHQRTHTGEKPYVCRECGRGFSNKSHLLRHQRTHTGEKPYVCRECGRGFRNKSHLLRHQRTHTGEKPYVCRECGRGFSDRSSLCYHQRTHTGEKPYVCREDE

`COc1cc2c(NC3CCN(C)CC3)cc(-c3ccc(C)o3)nc2cc1OCCCN1CCCC1` [CM-272]: the “β-globin expression in HUDEP-2 cells” value in data set [1] (0.01 μM) is 1.0071 and 1.036 and 1.465; in data set [1] (0.03 μM) it was 0.9553 and 1.237 and 1.08; in data set [1] (0.1 μM), 1.5931 and 1.663 and 1.768; in data set [1] (0.3 μM), 1.078 and 1.725 and 1.22; in data set [1] (1 μM), 1.093 and 1.321 and 1.148. Besides, the “γ-globin expression in HUDEP-2 cells” value is 1.193 and 1.0465 and 1.534 in data set [1] (0.01 μM); 1.464 and 1.528 and 1.418 in data set [1] (0.03 μM); 5.304 and 3.7722 and 4.868 in data set [1] (0.1 μM); 5.583 and 7.681 and 5.641 in data set [1] (0.3 μM); 3.245 and 3.178 and 3.329 in data set [1] (1 μM). For the same compound, the “γ-globin mRNA level” value in data set [1] (HUDEP-2) was “induced the expression of both BGLT3 and γ-globin”. For the same compound, the “cellular H3K9me2 levels” value in data set [2] is listed as “reduction of H3K9me2 levels”. Also, the “BGLT3 expression in HUDEP-2 cells” value was 1.264 and 1.918 and 0.9309 in data set [3] (0.01 μM); 0.9121 and 1.179 and 0.9824 in data set [3] (0.03 μM); 0.6878 and 0.8395 and 1.055 in data set [3] (0.1 μM); 4.167 and 3.251 and 2.85 in data set [3] (0.3 μM); 9.88 and 9.285 and 7.11 in data set [3] (1 μM). For the same compound, the BGLT3 expression result in data set [3] (HUDEP-2) was “induced the expression of both BGLT3 and γ-globin”. Besides, the “cell viability in HUDEP-2 cells” value in data set [4] (0.123457 μM, control (0 μM) = 100) was 108.704 and 95.321 and 98.9654. Further, in data set [4] (HUDEP-2, 3 days), the “cytotoxic effect on viability” value is listed as “severe cell toxicity”.

One may read the IC50 as the concentration that inhibits the measured activity by half. Consider `CN1C(=O)[C@@]23C[C@]4([C@]56C[C@@]78SS[C@@](CO)(C(=O)N7[C@H]5Nc5ccccc56)N(C)C8=O)c5ccccc5N[C@@H]4N2C(=O)[C@]1(CO)SS3` [Chaetocin, reference compound], for which the IC50 in data set [5] (IC50, NSD3, 1 μM SAM) came out at 150 nM; in data set [5] (IC50, NSD3, RK-701 in duplicate) it was 150 nM; in data set [6] (1 μM SAM), 93 nM; in data set [6] (RK-701 in duplicate), 92.8 nM; in data set [7] (IC50, PRDM9, 1 μM SAM), 13400 nM; in data set [7] (IC50, PRDM9, RK-701 in duplicate), 13400 nM.
